Experimental data: patent US10183021B2, “sGC stimulators” (Ironwood Pharmaceuticals, Inc., priority 2013, dated 2019)

What follows are compounds tested against soluble guanylate cyclase (sGC) (Homo sapiens (Human), UniProt Q02108+Q02153) (assay: sGC-HEK-cGMP assay, new protocol with DETA-NONOate, LC/MS detection (Example 2C)). Conditions: read-out: Absolute EC50 (uM) - binned.
Format: cell-based
Method: Human embryonic kidney cells (HEK293), endogenously expressing soluble guanylate cyclase (sGC), were used to evaluate the activity of test compounds. Compounds stimulating the sGC enzyme should cause an increase in the intracellular concentration of cGMP. HEK 293 cells were seeded in Dulbecco's Modification of Eagle's Medium supplemented with fetal bovine serum (10% final) and penicillin (100 U/mL)/streptomycin (100 μg/mL) in a 50 μL volume at a density of 1.5×10^4 cells/well in a poly-D-lysine coated 384 well flat bottom plate. Cells were incubated overnight at 37° C. in a humidified chamber with 5% CO2. Medium was aspirated and cells were washed with 1× Hank's Buffered Saline Salt Solution (50 μL). Cells were then incubated for 15 minutes at 37° C. with 50 μL of a 0.5 mM 3-isobutyl-1-methylxanthine (IBMX) solution. Test article and Diethylenetriamine NONOate (DETA-NONOate) solutions (x μM concentration for test article solution and 10 μM concentration for DETA-NONOate solution; wherein x is one of the following concentrations);
were then added to the assay mixture and the resulting mixture incubated at 37° C. for 20 minutes. After the 20 minute incubation, the assay mixture was aspirated and 10% acetic acid containing 150 ng/mL+3-cGMP (internal standard for LCMS) (50 μL) was added to the cells. The plate was incubated at 4° C. for 30 minutes in the acetic acid solution to stop the reaction and lyse the cells. The plates were then centrifuged at 1,000 g for 3 minutes at 4° C. and the supernatant transferred to a clean reaction plate for LCMS analysis.
cGMP concentrations were determined from each sample using the LCMS conditions below (Table 5) and calculated standard curve.
Data were normalized to a high control using the following equation: 100*(Sample−Low Control)/(High Control−Low Control), where the low control is the average of 16 samples treated with 1% DMSO, and the high control is the average of 16 samples treated with 30 μM of 1-329 Data were fit using a 4-parameter fit (log(agonist) vs. response—variable slope) using GraphPad Prism Software v.5. n=2 for all compounds. […] Compounds failing to elicit a minimum response of 50% are reported as >30 μM.

Sequence of soluble guanylate cyclase (sGC) (Q02153 whole entry): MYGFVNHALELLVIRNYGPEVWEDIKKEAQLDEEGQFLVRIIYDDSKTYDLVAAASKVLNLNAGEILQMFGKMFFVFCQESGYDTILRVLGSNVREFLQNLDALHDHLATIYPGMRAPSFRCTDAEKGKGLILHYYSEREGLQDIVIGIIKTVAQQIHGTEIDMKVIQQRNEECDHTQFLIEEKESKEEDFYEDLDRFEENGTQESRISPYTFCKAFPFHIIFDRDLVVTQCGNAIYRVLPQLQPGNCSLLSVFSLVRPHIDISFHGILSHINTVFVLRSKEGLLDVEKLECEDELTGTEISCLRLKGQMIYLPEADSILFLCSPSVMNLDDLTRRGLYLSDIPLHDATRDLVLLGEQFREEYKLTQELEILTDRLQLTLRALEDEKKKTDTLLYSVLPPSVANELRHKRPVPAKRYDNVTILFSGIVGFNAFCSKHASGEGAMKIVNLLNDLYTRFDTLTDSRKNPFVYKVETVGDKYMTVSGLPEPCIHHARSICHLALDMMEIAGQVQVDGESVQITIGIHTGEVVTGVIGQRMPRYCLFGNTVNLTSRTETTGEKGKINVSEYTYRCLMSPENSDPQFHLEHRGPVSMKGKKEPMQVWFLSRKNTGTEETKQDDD
Sequence of soluble guanylate cyclase (sGC) (Q02108 whole entry): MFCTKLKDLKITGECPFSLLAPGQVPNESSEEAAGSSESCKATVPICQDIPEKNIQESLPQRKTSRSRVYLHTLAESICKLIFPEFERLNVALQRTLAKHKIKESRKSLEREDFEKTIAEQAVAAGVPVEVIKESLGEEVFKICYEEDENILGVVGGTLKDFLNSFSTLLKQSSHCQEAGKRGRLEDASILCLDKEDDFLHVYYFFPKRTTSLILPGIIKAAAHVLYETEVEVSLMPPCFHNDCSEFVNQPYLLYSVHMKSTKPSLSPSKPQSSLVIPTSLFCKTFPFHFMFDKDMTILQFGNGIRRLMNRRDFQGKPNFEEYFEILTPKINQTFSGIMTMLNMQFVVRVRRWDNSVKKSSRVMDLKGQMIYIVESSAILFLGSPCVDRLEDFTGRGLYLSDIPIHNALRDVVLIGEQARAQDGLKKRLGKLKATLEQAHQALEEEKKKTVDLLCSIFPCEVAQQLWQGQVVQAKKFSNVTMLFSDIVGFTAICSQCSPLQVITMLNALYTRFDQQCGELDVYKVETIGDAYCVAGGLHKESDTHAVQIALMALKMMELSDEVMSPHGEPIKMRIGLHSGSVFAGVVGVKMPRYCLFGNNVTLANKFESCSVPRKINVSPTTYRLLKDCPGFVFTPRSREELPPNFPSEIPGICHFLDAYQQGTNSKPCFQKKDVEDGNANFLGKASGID

Compound	EC50 [µM]
CC1(C(=O)O)CCCN(c2nc(-c3cc(-c4ccon4)n(Cc4ccccc4F)n3)ncc2F)C1 (stereo not drawn) [Compound I-406]	< 0.1
OCC(Nc1nc(-c2cc(-c3ccon3)n(Cc3ccccc3F)n2)ncc1F)C(F)(F)F (stereo not drawn) [Compound I-404]	0.101 to 1
NC(=O)CNc1nc(-c2cc(-c3ccon3)n(CCC(F)(F)F)n2)ncc1F [Compound I-511]	> 1
Fc1ccccc1Cn1nc(-c2ncc(F)c(NCC(F)(F)F)n2)cc1-c1ccon1 [Compound I-466]	< 0.1
CCOC(=O)C1(C)C(=O)Nc2cnc(-c3cc(-c4ccon4)n(Cc4ccccc4F)n3)nc21 (stereo not drawn) [Compound I-617]	> 1
CC(C)[C@@H](Nc1nc(-c2cc(-c3ccon3)n(Cc3ccccc3F)n2)ncc1F)C(N)=O [Compound I-536]	< 0.1
N#CC1(C(=O)Nc2nc(-c3cc(-c4ccon4)n(Cc4ccccc4F)n3)ncc2F)CC1 [Compound I-460]	> 1
Oc1n[nH]c2c1CCN(c1nc(-c3cc(-c4ccon4)n(Cc4ccccc4F)n3)ncc1F)C2 [Compound I-370]	< 0.1
O=C(Nc1ccnc(-c2cc(-c3ccon3)n(Cc3ccccc3F)n2)n1)c1ccncn1 [Compound I-555]	> 1
CC1(C(N)=O)C(=O)Nc2nc(-c3cc(-c4ccon4)n(Cc4ccccc4F)n3)nc(N)c21 (stereo not drawn) [Compound I-421]	0.101 to 1
O=C1O[C@@H](CO)CN1c1nc(-c2cc(-c3ccon3)n(Cc3ccccc3F)n2)ncc1F [Compound I-575]	< 0.1
O=C(CN1CCOC1=O)Nc1ccnc(-c2cc(-c3ccon3)n(Cc3ccccc3F)n2)n1 [Compound I-600]	0.101 to 1
CCOC(=O)C1(C)CCN(c2nc(-c3cc(-c4ccon4)n(Cc4ccccc4F)n3)ncc2F)C1=O (stereo not drawn) [Compound I-591]	0.101 to 1
CC1(C(=O)NC2CC2)C(=O)Nc2nc(-c3cc(-c4ccon4)n(Cc4ccccc4F)n3)nc(N)c21 (stereo not drawn) [Compound I-422]	0.101 to 1
CCOCC(=O)Nc1ccnc(-c2cc(-c3ccon3)n(Cc3ccccc3F)n2)n1 [Compound I-562]	0.101 to 1
CC(=O)NNC(=O)C1(C)C(=O)Nc2nc(-c3cc(-c4ccon4)n(Cc4ccccc4F)n3)nc(N)c21 (stereo not drawn) [Compound I-623]	> 1
O=C(O)C12CC1CCCN2c1nc(-c2cc(-c3ccon3)n(Cc3ccccc3F)n2)ncc1F (stereo not drawn) [Compound I-308]	0.101 to 1
CC1(C(=O)Nc2ccnc(-c3cc(-c4ccon4)n(Cc4ccccc4F)n3)n2)Cc2ccccc2S1(=O)=O (stereo not drawn) [Compound I-594]	> 1
CN(CC1(C(=O)O)CC1)c1nc(-c2cc(-c3ccon3)n(CCC(F)(F)F)n2)ncc1F [Compound I-523]	> 1
OCCCNc1nc(-c2cc(-c3ccon3)n(Cc3ccccc3F)n2)ncc1F [Compound I-408]	< 0.1
CC(O)CN(CC(C)O)c1nc(-c2cc(-c3ccon3)n(Cc3ccccc3F)n2)ncc1F (stereo not drawn) [Compound I-431]	< 0.1

Compound	EC50 [µM]
O=C(Nc1nc(-c2cc(-c3ccon3)n(Cc3ccccc3F)n2)ncc1N1CCOCC1)C(O)(C(F)(F)F)C(F)(F)F [Compound I-468]	0.101 to 1
OC(CNc1ccnc(-c2cc(-c3ccon3)n(Cc3ccccc3F)n2)n1)(C(F)(F)F)C(F)(F)F [Compound I-500]	0.101 to 1
COC(C(=O)Nc1ccnc(-c2cc(-c3ccon3)n(Cc3ccccc3F)n2)n1)(c1ccccc1)C(F)(F)F (stereo not drawn) [Compound I-572]	> 1
O=C(Nc1ccnc(-c2cc(-c3ccon3)n(Cc3ccccc3F)n2)n1)C1(O)CC1 [Compound I-478]	< 0.1
O=[N+]([O-])c1cnc(-c2cc(-c3ccon3)n(Cc3ccccc3F)n2)nc1NCC(O)(C(F)(F)F)C(F)(F)F [Compound I-483]	> 1
CS(=O)(=O)NCC(O)CNc1nc(-c2cc(-c3ccon3)n(Cc3ccccc3F)n2)ncc1F (stereo not drawn) [Compound I-349]	< 0.1
CC1(C)CCC(C(=O)O)N(c2nc(-c3cc(-c4ccon4)n(Cc4ccccc4F)n3)ncc2F)C1 (stereo not drawn) [Compound I-268]	< 0.1
CCOC(=O)C1(C)C(=O)Nc2nc(-c3cc(-c4ccon4)n(CCC(F)(F)F)n3)nc(N)c21 (stereo not drawn) [Compound I-618]	> 1
Cc1cc(-c2ncc(F)c(NCC(O)(C(F)(F)F)C(F)(F)F)n2)nn1Cc1ccccc1F [Compound I-414]	> 1
CC(C)S(=O)(=O)Nc1nc(-c2cc(-c3ccon3)n(Cc3ccccc3F)n2)ncc1F [Compound I-505]	0.101 to 1
O=S(=O)(Nc1nc(-c2cc(-c3ccon3)n(Cc3ccccc3F)n2)ncc1F)c1ccccc1 [Compound I-613]	0.101 to 1
O=C(Nc1ccnc(-c2cc(-c3ccon3)n(Cc3ccccc3F)n2)n1)C1CC1 [Compound I-558]	0.101 to 1
CCOC(=O)C1(C)C(=O)Nc2nc(-c3cc(-c4ccon4)n(Cc4ccccc4F)n3)nc(N)c21 (stereo not drawn) [Compound I-420]	< 0.1
COCCS(=O)(=O)Nc1nc(-c2cc(-c3ccon3)n(Cc3ccccc3F)n2)ncc1F [Compound I-446]	> 1
COC(=O)[C@@H]1CCC(=O)N1c1nc(-c2cc(-c3ccon3)n(Cc3ccccc3F)n2)ncc1F [Compound I-401]	> 1
Nc1cnc(-c2cc(-c3ccon3)n(Cc3ccccc3F)n2)nc1NCC(O)(C(F)(F)F)C(F)(F)F [Compound I-484]	0.101 to 1
O=C1OCC(C(F)(F)F)N1c1ccnc(-c2cc(-c3ccon3)n(Cc3ccccc3F)n2)n1 (stereo not drawn) [Compound I-504]	> 1
O=C(O)c1cc(-c2ncc(F)c(NCC(O)(C(F)(F)F)C(F)(F)F)n2)nn1Cc1ccccc1F [Compound I-476]	> 1
NC(=O)C1(Nc2nc(-c3cc(-c4ccon4)n(Cc4ccccc4F)n3)ncc2F)CC1 [Compound I-538]	< 0.1
O=C(Nc1ccnc(-c2cc(-c3ccon3)n(Cc3ccccc3F)n2)n1)C1CCCO1 (stereo not drawn) [Compound I-570]	0.101 to 1
CC(=O)NS(=O)(=O)C1CCN(c2nc(-c3cc(-c4ccon4)n(Cc4ccccc4F)n3)ncc2F)CC1 [Compound I-426]	< 0.1

Compound	EC50 [µM]
O=C(O)c1cccc2c1CN(c1nc(-c3cc(-c4ccon4)n(Cc4ccccc4F)n3)ncc1F)CC2 [Compound I-339]	< 0.1
Fc1ccccc1Cn1nc(-c2ncc(F)c(NCc3nnc(C(F)(F)F)o3)n2)cc1-c1ccon1 [Compound I-608]	< 0.1
O=C(Nc1ccccc1)Nc1ccnc(-c2cc(-c3ccon3)n(Cc3ccccc3F)n2)n1 [Compound I-583]	> 1
Oc1n[nH]c2c1CN(c1nc(-c3cc(-c4ccon4)n(Cc4ccccc4F)n3)ncc1F)CC2 [Compound I-631]	< 0.1
CN(CC1(C(=O)O)CC1)c1nc(-c2cc(-c3nccs3)n(Cc3ccccc3F)n2)ncc1F [Compound I-343]	< 0.1
OCCN(CCO)c1nc(-c2cc(-c3ccon3)n(Cc3ccccc3F)n2)ncc1F [Compound I-428]	< 0.1
Fc1ccccc1Cn1nc(-c2ncc(F)c(NCC3(c4ncc[nH]4)CC3)n2)cc1-c1ccon1 [Compound I-567]	> 1
O=C(Nc1ccnc(-c2cc(-c3ccon3)n(Cc3ccccc3F)n2)n1)c1ccc[nH]1 [Compound I-550]	> 1
O=C(O)CC(Nc1nc(-c2cc(-c3ccon3)n(Cc3ccccc3F)n2)ncc1F)C(F)(F)F (stereo not drawn) [Compound I-418]	0.101 to 1
O=S(=O)(CCNc1nc(-c2cc(-c3ccon3)n(Cc3ccccc3F)n2)ncc1F)NCC(F)(F)F [Compound I-381]	< 0.1
OCC1Cn2c(nnc2C(F)(F)F)CN1c1nc(-c2cc(-c3ccon3)n(Cc3ccccc3F)n2)ncc1F (stereo not drawn) [Compound I-633]	< 0.1
CC(C)C(Nc1nc(-c2cc(-c3ccon3)n(Cc3ccccc3F)n2)ncc1F)C(=O)NC1CC1 (stereo not drawn) [Compound I-508]	< 0.1
O=C(Nc1ccnc(-c2cc(-c3ccon3)n(Cc3ccccc3F)n2)n1)c1cccs1 [Compound I-561]	> 1
CC(C)(C)OC(=O)N1CC(O)(CNc2nc(-c3cc(-c4ccon4)n(Cc4ccccc4F)n3)ncc2F)C1 [Compound I-351]	< 0.1
Cc1nnc(CNc2nc(-c3cc(-c4ccon4)n(Cc4ccccc4F)n3)ncc2F)o1 [Compound I-496]	< 0.1
O=C(O)C(CC(F)F)Nc1nc(-c2cc(-c3ccon3)n(Cc3ccccc3F)n2)ncc1F (stereo not drawn) [Compound I-398]	> 1
Fc1ccccc1Cn1nc(-c2ncc(F)c(NC3CCOC3)n2)cc1-c1ccon1 (stereo not drawn) [Compound I-578]	< 0.1
OC[C@@H]1C[C@@H](O)CN1c1nc(-c2cc(-c3ccon3)n(Cc3ccccc3F)n2)ncc1F [Compound I-435]	< 0.1
OC(CNc1nc(-c2cc(-c3ccon3)n(Cc3cccc(F)c3F)n2)ncc1F)(C(F)(F)F)C(F)(F)F [Compound I-488]	0.101 to 1
CC(C)[C@H](CN(C)c1nc(-c2cc(-c3ccon3)n(Cc3ccccc3F)n2)ncc1F)NS(=O)(=O)C1CC1 [Compound I-344]	< 0.1
OCC(F)(F)CNc1nc(-c2cc(-c3ccon3)n(Cc3ccccc3F)n2)ncc1F [Compound I-521]	< 0.1
